According to publication PMC8476002, “Bergamottin a CYP3A inhibitor found in grapefruit juice inhibits prostate cancer cell growth by downregulating androgen receptor signaling and promoting G0/G1 cell cycle block and apoptosis” (PLoS ONE, 2021):

Tests used:
Type in all cases: cell-based, human
MDAPCa2b cells = assay: Cell cycle analysis (propidium iodide, flow cytometry), MDAPCa2b
Method: Cell cycle analysis was performed after staining the cells with propidium iodide (PI). For long term bergamottin treatment (96 hrs.) cells were plated at 25–30% confluence and for short term bergamottin treatment (48 hrs.) they were plated at 30–35% confluence. After completion of specified treatment the cells were trypsinized washed with PBS and fixed in 70% ethanol and then stained with PI in nicoletti buffer (propidium iodide 50 μg/ml, 0.1% sodium citrate, 0.1% triton X-100, RNase 1 mg/ml, in DPBS). Cells were analyzed using C6 Accuri flow cytometer (Becton Dickinson, Mountainview, CA). FlowJo software was used to gate and remove the debris (gate on SSC and FSC) and aggregates (FL2 A and FL2H) from the analysis. Watson pragmatic and Dean-Jett -Fox methods was used to assign percentage frequencies to cells present in the different cell cycle stages.

[1] = test system: cell cycle regulating proteins in LNCaP cells; assay: Western blot of cell cycle regulating proteins, LNCaP; settings: for CDK2, normalized fold change after GAPDH calibration / CDK4, normalized fold change after GAPDH calibration / CDK6, normalized fold change after GAPDH calibration / Cyclin A, normalized fold change after GAPDH calibration / Cyclin B1, normalized fold change after GAPDH calibration / Cyclin D1, normalized fold change after GAPDH calibration / Cyclin D3, normalized fold change after GAPDH calibration / Cyclin E, normalized fold change after GAPDH calibration / Myt 1, normalized fold change after GAPDH calibration / P-Wee1, normalized fold change after GAPDH calibration / P-cdc2, normalized fold change after GAPDH calibration / P-histone H3, normalized fold change after GAPDH calibration / p21, normalized fold change after GAPDH calibration / p27, normalized fold change after GAPDH calibration: LNCAP, 48 hrs., 0 μM = 100
Method: (§1) Cells were plated at 25–30% confluence when maintained in complete media. When the cells required DHT tretment and media replacement to charcoal stripped serum media (CSSM) they were plated at 35–40% confluence. Bergamottin is dissolved in DMSO (vehicle control) and the amount of DMSO at each treatment group was kept constant. After the completion of the treatment cells were washed in phosphate buffer (PBS) containing 2mMEDTA and 2mM EGTA and lysed in RIPA buffer (50 mM TRIS, 150 mM NaCl, 1% NP40, 0.5% sodium deoxycholate, 0.1% SDS, 2mM EDTA, 2mM EGTA) supplemented with protease and phosphatase inhibitors for total protein isolation. Protein estimation was performed using micro BCA assay and equal protein amponts were loaded on SDS-PAGE gels for western analysis. GAPDH was used as an internal control for total protein. Infrared fluorescent-labeled secondary antibodies were used for detection using Odyssey CLx. The bands were quantified using Odyssey software, which calculates pixel density and automatically takes an area adjacent to each band for background corrections. […]

[2] = test system: cell cycle regulating proteins in MDAPCa2b cells; assay: Western blot of cell cycle regulating proteins, MDAPCa2b; settings: for CDK2, normalized fold change after GAPDH calibration / CDK4, normalized fold change after GAPDH calibration / CDK6, normalized fold change after GAPDH calibration / Cyclin A, normalized fold change after GAPDH calibration / Cyclin B1, normalized fold change after GAPDH calibration / Cyclin D1, normalized fold change after GAPDH calibration / Cyclin D3, normalized fold change after GAPDH calibration / Cyclin E, normalized fold change after GAPDH calibration / Myt 1, normalized fold change after GAPDH calibration / P-Wee1, normalized fold change after GAPDH calibration / P-cdc2, normalized fold change after GAPDH calibration / P-histone H3, normalized fold change after GAPDH calibration / p21, normalized fold change after GAPDH calibration / p27, normalized fold change after GAPDH calibration: 48 hrs., 0 μM = 100
Method: as §1

[3] = LNCaP, low dose 5 and 10 μM, 96 hrs.

CC(C)=CCC/C(C)=C/COc1c2ccoc2cc2oc(=O)ccc12 [bergamottin]
G1 frequency, Dean-Jett-Fox (MDAPCa2b cells; Berg 5μM, 96 hrs.): 84.2 ±1.5%
G2 frequency, Dean-Jett-Fox (MDAPCa2b cells; Berg 5μM, 96 hrs.): 2.3 ±2.2%
G2 frequency, Watson Pragmatic (MDAPCa2b cells; Berg 5μM, 96 hrs.): 8.4 ±1.6%
S frequency, Dean-Jett-Fox (MDAPCa2b cells; Berg 5μM, 96 hrs.): 12.2 ±1.0%
S frequency, Watson Pragmatic (MDAPCa2b cells; Berg 5μM, 96 hrs.): 7.7 ±2.6%
G1 frequency, Dean-Jett-Fox (MDAPCa2b cells; Berg 10μM, 96 hrs.): 88.8 ±2.0%
G2 frequency, Dean-Jett-Fox (MDAPCa2b cells; Berg 10μM, 96 hrs.): 3.3 ±0.3%
G2 frequency, Watson Pragmatic (MDAPCa2b cells; Berg 10μM, 96 hrs.): 6.6 ±1.2%
S frequency, Dean-Jett-Fox (MDAPCa2b cells; Berg 10μM, 96 hrs.): 7.4 ±2.5%
S frequency, Watson Pragmatic (MDAPCa2b cells; Berg 10μM, 96 hrs.): 5.8 ±2.8%
G1 frequency, Dean-Jett-Fox (MDAPCa2b cells; Berg 20μM, 48 hrs.): 84.9 ±0.4%
G2 frequency, Dean-Jett-Fox (MDAPCa2b cells; Berg 20μM, 48 hrs.): 9.6 ±0.5%
G2 frequency, Watson Pragmatic (MDAPCa2b cells; Berg 20μM, 48 hrs.): 9.6 ±1.8%
S frequency, Dean-Jett-Fox (MDAPCa2b cells; Berg 20μM, 48 hrs.): 6.7 ±0.7%
S frequency, Watson Pragmatic (MDAPCa2b cells; Berg 20μM, 48 hrs.): 7.1 ±1.7%
G1 frequency, Dean-Jett-Fox (MDAPCa2b cells; Berg 30μM, 48 hrs.): 88.4 ±3.6%
G2 frequency, Dean-Jett-Fox (MDAPCa2b cells; Berg 30μM, 48 hrs.): 6.8 ±3.2%
G2 frequency, Watson Pragmatic (MDAPCa2b cells; Berg 30μM, 48 hrs.): 8.4 ±1.1%
S frequency, Dean-Jett-Fox (MDAPCa2b cells; Berg 30μM, 48 hrs.): 3.3 ±3.4%
S frequency, Watson Pragmatic (MDAPCa2b cells; Berg 30μM, 48 hrs.): 5.6 ±0.5%
CDK2, normalized fold change after GAPDH calibration ([1]; Bergamottin 20 μM): 62
CDK4, normalized fold change after GAPDH calibration ([1]; Bergamottin 20 μM): 46
CDK6, normalized fold change after GAPDH calibration ([1]; Bergamottin 20 μM): 60
Cyclin A, normalized fold change after GAPDH calibration ([1]; Bergamottin 20 μM): 80
Cyclin B1, normalized fold change after GAPDH calibration ([1]; Bergamottin 20 μM): 50
Cyclin D1, normalized fold change after GAPDH calibration ([1]; Bergamottin 20 μM): 43
Cyclin D3, normalized fold change after GAPDH calibration ([1]; Bergamottin 20 μM): 68
Cyclin E, normalized fold change after GAPDH calibration ([1]; Bergamottin 20 μM): 109
Myt 1, normalized fold change after GAPDH calibration ([1]; Bergamottin 20 μM): 103
P-Wee1, normalized fold change after GAPDH calibration ([1]; Bergamottin 20 μM): 63
P-cdc2, normalized fold change after GAPDH calibration ([1]; Bergamottin 20 μM): 18
P-histone H3, normalized fold change after GAPDH calibration ([1]; Bergamottin 20 μM): 294
p21, normalized fold change after GAPDH calibration ([1]; Bergamottin 20 μM): 83
p27, normalized fold change after GAPDH calibration ([1]; Bergamottin 20 μM): 112
CDK2, normalized fold change after GAPDH calibration ([1]; Bergamottin 30 μM): 67
CDK4, normalized fold change after GAPDH calibration ([1]; Bergamottin 30 μM): 30
CDK6, normalized fold change after GAPDH calibration ([1]; Bergamottin 30 μM): 12
Cyclin A, normalized fold change after GAPDH calibration ([1]; Bergamottin 30 μM): 55
Cyclin B1, normalized fold change after GAPDH calibration ([1]; Bergamottin 30 μM): 44
Cyclin D1, normalized fold change after GAPDH calibration ([1]; Bergamottin 30 μM): 12
Cyclin D3, normalized fold change after GAPDH calibration ([1]; Bergamottin 30 μM): 44
Cyclin E, normalized fold change after GAPDH calibration ([1]; Bergamottin 30 μM): 53
Myt 1, normalized fold change after GAPDH calibration ([1]; Bergamottin 30 μM): 82
P-Wee1, normalized fold change after GAPDH calibration ([1]; Bergamottin 30 μM): 37
P-cdc2, normalized fold change after GAPDH calibration ([1]; Bergamottin 30 μM): 5
P-histone H3, normalized fold change after GAPDH calibration ([1]; Bergamottin 30 μM): 35
p21, normalized fold change after GAPDH calibration ([1]; Bergamottin 30 μM): 102
p27, normalized fold change after GAPDH calibration ([1]; Bergamottin 30 μM): 183
CDK4 level (western blot) [1, 3]: did not observe any significant change
CDK6 level (western blot) [1, 3]: did not observe any significant change
cdc-2 phosphorylation (western blot) [1, 3]: Decreased cdc-2 phosphorylation
cyclin B1 level (western blot) [1, 3]: lower
cyclin D1 level (western blot) [1, 3]: lower
cyclin D3 level (western blot) [1, 3]: lower
CDK2, normalized fold change after GAPDH calibration ([2]; Bergamottin 20 μM): 63
CDK4, normalized fold change after GAPDH calibration ([2]; Bergamottin 20 μM): 90
CDK6, normalized fold change after GAPDH calibration ([2]; Bergamottin 20 μM): 108
Cyclin A, normalized fold change after GAPDH calibration ([2]; Bergamottin 20 μM): 86
Cyclin B1, normalized fold change after GAPDH calibration ([2]; Bergamottin 20 μM): 52
Cyclin D1, normalized fold change after GAPDH calibration ([2]; Bergamottin 20 μM): 106
Cyclin D3, normalized fold change after GAPDH calibration ([2]; Bergamottin 20 μM): 55
Cyclin E, normalized fold change after GAPDH calibration ([2]; Bergamottin 20 μM): 120
Myt 1, normalized fold change after GAPDH calibration ([2]; Bergamottin 20 μM): 259
P-Wee1, normalized fold change after GAPDH calibration ([2]; Bergamottin 20 μM): 80
P-cdc2, normalized fold change after GAPDH calibration ([2]; Bergamottin 20 μM): 14
P-histone H3, normalized fold change after GAPDH calibration ([2]; Bergamottin 20 μM): 130
p21, normalized fold change after GAPDH calibration ([2]; Bergamottin 20 μM): 139
p27, normalized fold change after GAPDH calibration ([2]; Bergamottin 20 μM): 158
CDK2, normalized fold change after GAPDH calibration ([2]; Bergamottin 30 μM): 77
CDK4, normalized fold change after GAPDH calibration ([2]; Bergamottin 30 μM): 81
CDK6, normalized fold change after GAPDH calibration ([2]; Bergamottin 30 μM): 98
Cyclin A, normalized fold change after GAPDH calibration ([2]; Bergamottin 30 μM): 58
Cyclin B1, normalized fold change after GAPDH calibration ([2]; Bergamottin 30 μM): 42
Cyclin D1, normalized fold change after GAPDH calibration ([2]; Bergamottin 30 μM): 110
Cyclin D3, normalized fold change after GAPDH calibration ([2]; Bergamottin 30 μM): 49
Cyclin E, normalized fold change after GAPDH calibration ([2]; Bergamottin 30 μM): 87
Myt 1, normalized fold change after GAPDH calibration ([2]; Bergamottin 30 μM): 451
P-Wee1, normalized fold change after GAPDH calibration ([2]; Bergamottin 30 μM): 87
P-cdc2, normalized fold change after GAPDH calibration ([2]; Bergamottin 30 μM): 15
P-histone H3, normalized fold change after GAPDH calibration ([2]; Bergamottin 30 μM): 152
p21, normalized fold change after GAPDH calibration ([2]; Bergamottin 30 μM): 126
p27, normalized fold change after GAPDH calibration ([2]; Bergamottin 30 μM): 143
CDK4 level (western blot) ([2]; low dose 5 and 10 μM, 96 hrs.): did not observe any significant change
CDK6 level (western blot) ([2]; low dose 5 and 10 μM, 96 hrs.): did not observe any significant change
cdc-2 phosphorylation (western blot) ([2]; low dose 5 and 10 μM, 96 hrs.): Decreased cdc-2 phosphorylation
cyclin B1 level (western blot) ([2]; low dose 5 and 10 μM, 96 hrs.): lower
cyclin D3 level (western blot) ([2]; low dose 5 and 10 μM, 96 hrs.): lower
